Experimental data as given in patent US8932597B2 (priority 2008, dated 2015).

System: anti-M2 human monoclonal antibody Z3G1
Format: binding

Substance | Signal (peptides that bind to Z3G1) | Signal (peptides that show specific binding to Z3G1)
1446 (CETPIRNEWGLLTEVETPICLTEVETPIR; epitope peptide; MISC_FEATURE (1)..(1): C is an attachment site for a CLIP; MISC_FEATURE (10)..(10): G is an attachment site for a CLIP; MISC_FEATURE (11)..(11): L is an attachment site for a CLIP; MISC_FEATURE (29)..(29): R is an attachment site for a CLIP) [compound 1446] | 2367 | 
1334 (MSLLCEVGMCLLTEV; epitope peptide) [compound 1334] | 2676 | 
1389 (SLLCEVETPIRNCWG; epitope peptide) [compound 1389] | 2789 | 
1399 (SLLTEVETPIRNECG; epitope peptide) [compound 1399] | 1545 | 
1285 (MSLLIEVETPIRNEWGCRCN; epitope peptide) [compound 1285] | 2371 | 
1444 (CEVETPIRNELLTEVETPICLTEVETPIR; epitope peptide; MISC_FEATURE (1)..(1): C is an attachment site for a CLIP; MISC_FEATURE (10)..(10): E is an attachment site for a CLIP; MISC_FEATURE (11)..(11): L is an attachment site for a CLIP; MISC_FEATURE (29)..(29): R is an attachment site for a CLIP) [compound 1444] | 2000 | 
1309 (MSLLTEVRTPIRNEWGCRCN; epitope peptide) [compound 1309] | 2668 | 
1373 (SLLCEVETPIRNEWGC; epitope peptide) [compound 1373] | 2281 | 
1382 (CLLTEVETCIRNEWG; epitope peptide) [compound 1382] | 2296 | 
1566 (GLLTEVETPIRNEWGCRCNDSSD; epitope peptide) [compound 1566] |  | 2321
1390 (SLLCEVETPIRCEWG; epitope peptide) [compound 1390] | 2601 | 
1253 (MFLLTEVETPIRNEWGCRCN; epitope peptide) [compound 1253] | 1707 | 
1272 (MSLHTEVETPIRNEWGCRCN; epitope peptide) [compound 1272] | 2058 | 
1358 (CLLTEVECPIRNE; epitope peptide) [compound 1358] | 2326 | 
1458 (CLTEVETPIRLLTEVETPICTEVETPIRN; epitope peptide; MISC_FEATURE (1)..(1): C is an attachment site for a CLIP; MISC_FEATURE (10)..(10): R is an attachment site for a CLIP; MISC_FEATURE (11)..(11): L is an attachment site for a CLIP; MISC_FEATURE (29)..(29): N is an attachment site for a CLIP) [compound 1458] | 1756 | 
1320 (MCLLTEVETPCRNE; epitope peptide) [compound 1320] | 2404 | 
1585 (SLLKEVETPIRNEWGCRCNDSSD; epitope peptide) [compound 1585] |  | 2611
1559 (SLLCEVGSLLTCV; epitope peptide) [compound 1559] |  | 1972
1570 (MLLTEVETPIRNEWGCRCNDSSD; epitope peptide) [compound 1570] |  | 2126
1265 (MWLLTEVETPIRNEWGCRCN; epitope peptide) [compound 1265] | 2615 | 
1514 (CVETPIRNEWLLTEVETPICETPIRNEWG; epitope peptide; MISC_FEATURE (1)..(1): C is an attachment site for a CLIP; MISC_FEATURE (10)..(10): W is an attachment site for a CLIP; MISC_FEATURE (11)..(11): L is an attachment site for a CLIP; MISC_FEATURE (29)..(29): G is an attachment site for a CLIP) [compound 1514] |  | 2575
1384 (CLLCEVETPIRNEWG; epitope peptide) [compound 1384] | 2388 | 
1305 (MSLLTEVKTPIRNEWGCRCN; epitope peptide) [compound 1305] | 2708 | 
1388 (SLLCEVETPIRNECG; epitope peptide) [compound 1388] | 2107 | 
1386 (SLCCEVETPIRNEWG; epitope peptide) [compound 1386] | 1603 | 

Substance | Signal (peptides that bind to Z3G1) | Signal (peptides that show specific binding to Z3G1)
1580 (SLLEEVETPIRNEWGCRCNDSSD; epitope peptide) [compound 1580] |  | 2420
1350 (MSLLCEVGMCLCTCV; epitope peptide) [compound 1350] | 2664 | 
1356 (CLLTEVETPCRNE; epitope peptide) [compound 1356] | 1991 | 
1279 (MSLLAEVETPIRNEWGCRCN; epitope peptide) [compound 1279] | 2807 | 
1333 (MSLLCEVETPIRNE; epitope peptide) [compound 1333] | 2454 | 
1561 (SLLCEVGCLCTCV; epitope peptide) [compound 1561] |  | 2331
1398 (SLLTEVETPIRNECC; epitope peptide) [compound 1398] | 1493 | 
1473 (CEVETPIRNESLLTEVETPCEVETPIRNE; epitope peptide; MISC_FEATURE (1)..(1): C is an attachment site for a CLIP; MISC_FEATURE (10)..(10): E is an attachment site for a CLIP; MISC_FEATURE (11)..(11): S is an attachment site for a CLIP; MISC_FEATURE (29)..(29): E is an attachment site for a CLIP) [compound 1473] | 2006 | 
1474 (CVETPIRNEWSLLTEVETPCEVETPIRNE; epitope peptide; MISC_FEATURE (1)..(1): C is an attachment site for a CLIP; MISC_FEATURE (10)..(10): W is an attachment site for a CLIP; MISC_FEATURE (11)..(11): S is an attachment site for a CLIP; MISC_FEATURE (29)..(29): E is an attachment site for a CLIP) [compound 1474] | 1986 | 
1551 (SLLCEVGSCLTEV; epitope peptide) [compound 1551] |  | 2499
1475 (CETPIRNEWGSLLTEVETPCEVETPIRNE; epitope peptide; MISC_FEATURE (1)..(1): C is an attachment site for a CLIP; MISC_FEATURE (10)..(10): G is an attachment site for a CLIP; MISC_FEATURE (11)..(11): S is an attachment site for a CLIP; MISC_FEATURE (29)..(29): E is an attachment site for a CLIP) [compound 1475] | 2642 | 
1479 (CTEVETPIRNLLTEVETPICEVETPIRNE; epitope peptide; MISC_FEATURE (1)..(1): C is an attachment site for a CLIP; MISC_FEATURE (10)..(10): N is an attachment site for a CLIP; MISC_FEATURE (11)..(11): L is an attachment site for a CLIP; MISC_FEATURE (29)..(29): E is an attachment site for a CLIP) [compound 1479] | 1627 | 
1251 (MDLLTEVETPIRNEWGCRCN; epitope peptide) [compound 1251] | 2726 | 
1365 (SLLCEVETCIRNE; epitope peptide) [compound 1365] | 2305 | 
1277 (MSLRTEVETPIRNEWGCRCN; epitope peptide) [compound 1277] | 2554 | 
1513 (CEVETPIRNELLTEVETPICETPIRNEWG; epitope peptide; MISC_FEATURE (1)..(1): C is an attachment site for a CLIP; MISC_FEATURE (10)..(10): E is an attachment site for a CLIP; MISC_FEATURE (11)..(11): L is an attachment site for a CLIP; MISC_FEATURE (29)..(29): G is an attachment site for a CLIP) [compound 1513] |  | 2466
1288 (MSLLMEVETPIRNEWGCRCN; epitope peptide) [compound 1288] | 2847 | 
1572 (PLLTEVETPIRNEWGCRCNDSSD; epitope peptide) [compound 1572] |  | 1641
1534 (SLLCEVETPIRNEWGCRCNDSSD; epitope peptide) [compound 1534] |  | 2161
1270 (MSLDTEVETPIRNEWGCRCN; epitope peptide) [compound 1270] | 2594 | 
1316 (CSLLCEVETPIRNE; epitope peptide) [compound 1316] | 2527 | 
1366 (SLLCEVECPIRNE; epitope peptide) [compound 1366] | 2377 | 
1300 (MSLLTEVDTPIRNEWGCRCN; epitope peptide) [compound 1300] | 2856 | 
1252 (MELLTEVETPIRNEWGCRCN; epitope peptide) [compound 1252] | 2679 | 
1394 (SLLCEVECPIRNEWG; epitope peptide) [compound 1394] | 2529 | 
